According to patent US9353048B2, “Compound as KCNQ potassium channel agonist, preparation method therefor and use thereof” (SHANGHAI INSTITUTE OF MATERIA MEDICA, CHINESE ACADEMY OF …, priority 2011, dated 2016):
Structures can show the parent of a compound that is named as a salt. Where two headings read alike, the source gives them in different places.

What was measured:
[1] = tested on: KCNQ channels; assay: Whole-cell voltage-clamp electrophysiological recording in CHO cells transfected with KCNQ channels; format: cell-based; details: for I/I0: activation multiple, maximum induced current at −10 mV testing voltage after administration (10 μM) vs before, >1 activating, <1 inhibiting; for ΔV1/2: shift of V1/2 of current activation curve, negative sign = left-ward shift, CHO cells
Description: The formulation of culture fluid for Chinese hamster […] (CHO) (Culture Collection of Chinese Academy of Sciences): 50/50 DMEM/F-12 (Cellgro, Mamassas, Va.), 10% fetal bovine serum (FBS) (Gibco, Australia) and 2 mM […] (Invitrogen). […] Lipofectamine2000™ agent (Invitrogen) was used for Transfection according to the protocol thereof. […] After cotransfection with GFP (green fluorescent protein), transfected cells could be determined under a fluorescence microscopy.
Whole-cell voltage-clamp recording was performed by using Axopatch-200B amplifier (Molecular Devices, Sunnyvale, Calif.) at room temperature. Borosilicate glass capillary tubes (World Precision Instruments, Sarasota, Fla.) were drawn into electrodes. The electric resistance of the electrodes filled with an intracellular fluid is 3 to 5 MΩ. […] During the recording, an extracellular fluid was continuously perfused by using a BPS perfusion system (ALA Scientific Instruments, Westburg, N.Y.). The formulation of the extracellular fluid was as follows: 140 mM NaCl, 5 mM KCl, 2 mM CaCl2, 1.5 mM MgCl2, 10 mM HEPES and 10 mM glucose (the pH value of the extracellular fluid was adjusted to 7.4 with NaOH). […] Resistors were connected in series to compensate 60 to 80% of signal loss. At present, multivoltage scheme was generally adopted, wherein the clamp voltage was set at −100 mV. Current was induced in cells by a series of 2000 ms stimulating voltage (from −90 mV up to +50 mV, with interval of 10 mV).
In the following table, V1/2 is the voltage at which 50% of cells were activated, ΔV1/2 is amount of a left-ward shift of V1/2, negative sign (−) represents a left-ward shift of the current activation curve and positive sign (+) represents a right-ward shift of the curve. I/I0 is the activation multiple, wherein, I0 is the maximum induced current produced under stimulation of −10 mV testing voltage, I is the maximum induced current produced under stimulation of −10 mV testing voltage after administration (10 μM), I/I0>1 represents activating activity, and I/I0<1 represents inhibiting activity. N is the number of tested cells. NT represents non-tested.

[2] = tested on: Convulsion Induced by Pentylenetetrazole (PTZ); assay: Convulsion induced by pentylenetetrazole (PTZ), compounds by gastric lavage, C57BL/6J mice; format: in vivo; details: 30 mg/kg gastric lavage
Description: The compounds to be tested were administrated to animals by gastric lavage (30 mg/kg); one hour later, pentylenetetrazole was administrated by subcutaneous injection (PTZ 80 mg/kg); and response of animals were observed within a period of 60 min.

[3] = Solubility in water (treatment of samples)
[4] = Distribution of K20.2HCl and K21.2HCl in mice's plasma and brain tissue; format: in vivo, KM mice; details: for Kp: brain, read-out: concentration of prototype drug in brain tissue relative to plasma
Text: Two hours after administration, animal were fed uniformly. Specific arrangement was as following table.
Then the residual liquid was absorbed to dryness.

[5] = tested on: Animal Models Induced by PTZ (Pentylenetetrazole); assay: PTZ test, compounds by intraperitoneal injection, KM mice; format: in vivo; details: intraperitoneal injection, same dosage, PTZ and MES tests; formate dihydrochloride
Description: Compounds to be tested were administrated by intraperitoneal injection (10 mg/kg, 5 mg/kg, 2.5 mg/kg, 0.1 ml/10 g).

[6] = tested on: Animal Models Induced by MES; assay: MES test, compounds orally administrated (gastric lavage), KM mice; format: in vivo; details: gastric lavage; formate dihydrochloride
Description: One time of electrical stimulation was applied to animals through ear clip electrodes, and a convulsion characterized by a tonic hind limb extension was observed. One day before the test, animals were screened in the above procedure to record the values of MES.
1 hour later, MES was applied according to parameters set the last day, and response of animals were observed and recorded immediately.

[7] = tested on: Animal Models Induced by PTZ; assay: PTZ test, compounds orally administrated (gastric lavage), KM mice; details: gastric lavage; formate dihydrochloride
Description: Response of animals were observed immediately and recorded within a period of 1 h.

[8] = K21.2HCl 5 mg/kg gastric lavage

Structure (SMILES) | I/I0 [1] | ΔV1/2 [1] | other results
C#CCN(Cc1cccc(F)c1)c1ccc(NC(=O)OC)cc1 [Compound K12] | 2.33 ± 0.17 | −21.1 ± 1.9 mV | –
C=C(C)CN(Cc1ccc(F)cc1)c1ccc(NC(=O)OC)c(NC(=O)OC)c1 [Compound K28] | 1.43 ± 0.05 | – | –
COC(=O)Nc1ccc(NCc2ccc(F)cc2)cc1 [Compound K1] | 2.84 ± 0.08 | −8.1 ± 3.1 mV | Latency period of clonus ([2]; PTZ 80 mg/kg s.c. 1 h later): 250 ± 114 s; Latency period of whole-body tonic seizures ([2]; PTZ 80 mg/kg s.c. 1 h later): 1785 ± 408 s; Mortality rate ([2]; PTZ 80 mg/kg s.c. 1 h later): 3/10; Incidence rate of convulsion ([2]; PTZ 80 mg/kg s.c. 1 h later, observed 60 min): 4/10; solubility in water (in words) [3]: can not be easily dissolved in water
C#CCN(Cc1ccccc1F)c1ccc(NC(=O)OC)cc1 [Compound K13] | 2.31 ± 0.36 | −7.6 ± 1.9 mV | –
C=C(C)CN(Cc1ccc(F)cc1)c1ccc(NC(=O)OC(C)(C)C)c(NC(=O)OC(C)(C)C)c1 [Compound K29] | 1.24 ± 0.10 | – | –
CC(=O)Nc1ccc(NCc2ccc(F)cc2)cc1 [Compound K2] | 1.50 ± 0.08 | −3.0 ± 2.0 mV | –
C#CCN(Cc1ccc(F)cc1)c1ccc2[nH]c(=O)[nH]c2c1 [Compound K25, 5-(N-parafluorobenzyl-N-propargyl-imino)-benzimidazole-2-one] | 1.8 ± 0.1 | −5.8 ± 1.7 mV | –
C=CCN(Cc1ccc(F)cc1)c1ccc(NC(=O)OCC)c(N)c1 [Compound K20, ethyl 2-amino-4-(N-parafluorobenzyl-N-allyl-imino)-aniline formate] | 1.75 ± 0.12 | −49.7 ± 3.4 mV | Kp ([4]; male, KM, mouse, oral, 20 mg/kg gastric lavage): 2.3
CCCCCOC(=O)Nc1ccc(N(Cc2ccc(F)cc2)C(=O)OCCCCC)cc1 [Compound K6] | 1.24 ± 0.02 | −1.6 ± 3.0 mV | –
C#CCN(Cc1ccc(F)cc1)c1ccc(NC(=O)OC)c(F)c1 [Compound K15] | 2.09 ± 0.31 | −22.0 ± 1.5 mV | –
CCC#CCN(Cc1ccc(F)cc1)c1ccc(NC(=O)OCC)c(NC(=O)OCC)c1 [Compound K24] | 1.2 ± 0.1 | −1.87 ± 2.5 mV | –
C#CCN(Cc1ccc(F)c(F)c1)c1ccc(NC(=O)OC)cc1 [Compound K19] | 2.52 ± 0.23 | −14.9 ± 2.7 mV | –
C=C(/C=C/CO)CN(Cc1ccc(F)cc1)c1ccc(NC(=O)OCC)c(NC(=O)OCC)c1 [Compound K32, ethyl 2-(ethoxycarbonyl-imino)-4-[N-parafluorobenzyl-N-1-(6-hydroxyl-2-alkenyl-3-hexylene)-imino]-aniline formate] | 1.76 ± 0.09 | −6.0 ± 1.5 mV | –
C#CCCOC(=O)Nc1ccc(N(CC#C)Cc2ccc(F)cc2)cc1N [Compound K33] | – | −36.8 ± 3.3 mV | –
C#CCN(Cc1ccc(F)cc1)c1ccc(NC(=O)OCC)cc1 [Compound K8] | 1.99 ± 0.37 | −7.3 ± 2.5 mV | –
C#CCN(Cc1ccc(F)cc1)c1ccc(NC(=O)OCC(C)C)cc1 [Compound K5] | 1.23 ± 0.08 | −14.3 ± 3.3 mV | –

Structure (SMILES) | I/I0 [1] | ΔV1/2 [1] | other results
C=CCN(Cc1ccc(F)cc1)c1ccc(NC(=O)OCC)cc1 [Compound K7] | 1.35 ± 0.27 | −4.7 ± 2.0 mV | –
C=C(C)CN(Cc1ccc(F)cc1)c1ccc(NC(=O)OC(C)C)c(NC(=O)OC(C)C)c1 [Compound K30] | 1.57 ± 0.25 | – | –
C#CCN(Cc1ccc(F)cc1)c1ccc(F)c(NC(=O)OC)c1 [Compound K10, methyl 2-fluoro-5-(N-parafluorobenzyl-N-propargyl-imino)-aniline formate] | 2.75 ± 0.31 | −18.7 ± 2.6 mV | –
C=CCOC(=O)Nc1ccc(N(Cc2ccc(F)cc2)CC(C)C)cc1NC(=O)OCC=C [Compound K27] | 1.52 ± 0.17 | – | –
C#CCN(Cc1ccc(F)c(C(F)(F)F)c1)c1ccccc1NC(=O)OC [Compound K14] | 1.43 ± 0.04 | −14.7 ± 2.1 mV | –
CCOC(=O)Nc1ccc(N(CC2=CCCCC2)Cc2ccc(F)cc2)cc1NC(=O)OCC [Compound K38] | 0.16 ± 0.02 | – | –
CCOC(=O)Nc1ccc(N(CCCC(C)=O)Cc2ccc(F)cc2)cc1NC(=O)OCC [Compound K26] | 1.25 ± 0.07 | – | –
C=C(/C=C/CN)CN(Cc1ccc(F)cc1)c1ccc(NC(=O)OCC)c(NC(=O)OCC)c1 [Compound K39, ethyl 2-(ethoxycarbonyl-imino)-4-[N-parafluorobenzyl-N-1-(6-amino-2-alkenyl-3-hexylene)-imino]-aniline formate] | 1.03 ± 0.11 | – | –
C#CCN(Cc1ccc(F)cc1)c1ccc(NC(=O)OC)c(NC(=O)OC)c1 [Compound K22, methyl 2-(methoxycarbonyl-imino)-4-(N-parafluorobenzyl-N-propargyl-imino)-aniline formate] | 2.10 ± 0.35 | −27.31 ± 3.9 mV | –
C#CCN(Cc1ccc(F)cc1)c1ccc(NC(=O)OCc2ccccc2)cc1 [Compound K4] | 2.09 ± 0.25 | −11.5 ± 2.0 mV | –
CC#CCN(Cc1ccc(F)cc1)c1ccc(NC(=O)OCC)c(NC(=O)OCC)c1 [Compound K23] | 1.44 ± 0.14 | −15.34 ± 3.8 mV | –
C=CCN(Cc1ccc(F)cc1)c1ccc2[nH]c(=O)[nH]c2c1 [Compound K34, 5-(N-parafluorobenzyl-N-allyl-imino)-benzimidazole-2-one] | 1.44 ± 0.16 | – | –
C#CCN(Cc1ccc(F)c(C(F)(F)F)c1)c1ccc(F)c(NC(=O)OC)c1 [Compound K11] | 2.24 ± 0.36 | −15.7 ± 1.0 mV | anti-convulsive effect (in words) ([2]; PTZ-induced convulsion): comparable anti-convulsive effect
C#CCN(Cc1ccc(F)cc1)c1ccc(NC(=O)OCC)c(N)c1 [Compound K21.2HCl, ethyl 2-amino-4-(N-parafluorobenzyl-N-propargyl-imino)-aniline formate dihydrochloride] | – | – | anti-convulsive effect compared with retigabine (in words) [5]: superior anti-convulsive effect; effect in MES test (in words) [6]: comparable effect; exposure amount of metabolite retigabine in brain tissue relative to prototype drug [4, 8]: 4.6%; exposure amount of metabolite retigabine in plasma relative to prototype drug [4, 8]: 5.4%; Kp ([4]; male, KM, mouse, oral, 5 mg/kg gastric lavage): 2.4; Tmax ([4]; male, KM, mouse, plasma or brain tissue, oral, K21.2HCl 5 mg/kg gastric lavage, read-out: time to reach the maximum concentrations (Tmax) of prototype drug in plasma or brain tissue): 15 min; effect in PTZ test (in words) [7]: obviously inhibit the tonic seizures
COC(=O)Nc1ccc(N(CC=C(C)C)Cc2ccc(F)cc2)cc1NC(=O)OC [Compound K31] | 1.36 ± 0.13 | – | –
C#CCN(c1cccc(NC(=O)OC)c1)C(C)c1ccc(F)cc1 (stereo not drawn) [Compound K16] | 1.47 ± 0.10 | −20.6 ± 4.5 mV | –
